Broadly, the log D is lipophilicity at a set pH, counting ionised and neutral species. A word on the IC50: it is the concentration at which inhibition is half-maximal. Higher therefore signals lower potency.

The text below walks through data of US20250375544A1, “DUAL MODE RADIOTRACER AND -THERAPEUTICS” (TECHNISCHE UNIVERSITÄT MÜNCHEN, priority 2021, published 2025).

For data set [1] the following is noted: ^177Lu-labeled compound, n = 6.
For data set [2], the system named is LNCaP tumor xenograft-bearing CB17-SCID mice. The experiment in a line: Biodistribution in LNCaP tumor xenograft-bearing CB17-SCID mice.
Another data set addresses PSMA (Homo sapiens, UniProt Q04609). The experiment in a line: Affinity determinations (IC50), competitive binding assay with ([^125I]I-BA)KuE on LNCaP cells. Particulars: ([^125I]I-BA)KuE 0.2 nM, HBSS (1% BSA), 4° C., 1 h, cold ^natGa/^natLu complex.
For data set [3] the following is noted: Wangler et al., Bioconjug Chem. 2010; cited from earlier work.

Sequence of PSMA (Q04609 whole entry): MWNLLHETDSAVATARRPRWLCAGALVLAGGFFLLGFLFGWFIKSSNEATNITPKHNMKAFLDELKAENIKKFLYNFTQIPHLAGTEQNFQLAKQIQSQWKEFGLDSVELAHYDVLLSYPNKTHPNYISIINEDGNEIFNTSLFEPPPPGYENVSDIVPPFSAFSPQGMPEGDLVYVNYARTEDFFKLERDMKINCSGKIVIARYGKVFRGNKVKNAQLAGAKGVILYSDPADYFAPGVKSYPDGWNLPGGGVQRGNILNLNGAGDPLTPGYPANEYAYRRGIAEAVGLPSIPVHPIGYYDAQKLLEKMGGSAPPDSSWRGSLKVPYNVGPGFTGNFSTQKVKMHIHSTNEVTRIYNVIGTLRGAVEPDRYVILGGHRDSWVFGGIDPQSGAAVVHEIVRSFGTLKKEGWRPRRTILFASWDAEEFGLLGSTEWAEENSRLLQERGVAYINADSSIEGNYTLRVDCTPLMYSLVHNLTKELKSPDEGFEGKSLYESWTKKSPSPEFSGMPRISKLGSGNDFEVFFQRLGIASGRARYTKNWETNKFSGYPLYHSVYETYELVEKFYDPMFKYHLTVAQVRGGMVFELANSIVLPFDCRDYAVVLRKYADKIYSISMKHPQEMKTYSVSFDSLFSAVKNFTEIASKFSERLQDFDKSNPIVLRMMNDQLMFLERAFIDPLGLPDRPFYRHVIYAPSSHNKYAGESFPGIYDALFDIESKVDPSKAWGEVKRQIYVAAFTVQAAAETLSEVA

On to `CSCC[C@H](NC(=O)CC[C@H](NC(=O)N[C@@H](CCC(=O)N[C@H](CCCNC(=O)CCC(=O)NCCCC[C@@H](NC(=O)[C@@H](CNC(=O)c1ccc([Si](F)(C(C)(C)C)C(C)(C)C)cc1)NC(=O)CN1CCN(CC(=O)O)CCN(CC(=O)O)CCN(CC(=O)O)CC1)C(=O)O)C(=O)O)C(=O)O)C(=O)O)C(=O)O` [Compound 5, Proinhibitor I], for which the “log D” value in data set [1] was −2.89±0.18.

For `CC(C)(C)[Si](F)(c1ccc(C(=O)NC[C@@H](NC(=O)CN2CCN(CC(=O)[O-])CCN(CC(=O)[O-])CCN(CC(=O)[O-])CC2)C(=O)N[C@H](CCCCNC(=O)CCC(=O)NCCC[C@@H](NC(=O)CC[C@H](NC(=O)O[C@@H](CCC(=O)O)C(=O)O)C(=O)O)C(=O)O)C(=O)O)cc1)C(C)(C)C.[177Lu+3]` [[^177Lu]Lu-3, [^177Lu]Lu-Carbamate I], in data set [2] (1 h p.i.), the “Biodistribution Adrenals” value was 1.46 ± 0.70 % ID/g, the “Biodistribution Blood” value amounted to 0.97 ± 0.18 % ID/g, the “Biodistribution Bone” value is 0.18 ± 0.02 % ID/g and the “Biodistribution Heart” value turned out to be 0.36 ± 0.04 % ID/g. For the same molecule, in data set [2] (1 h p.i.), the “Biodistribution Intestine” value came to 0.36 ± 0.17 % ID/g, the “Biodistribution Kidneys” value turned out to be 61.8±25.9 % ID/g, the “Biodistribution Liver” value is recorded as 0.87 ± 0.28 % ID/g and the “Biodistribution Lung” value stood at 2.88 ± 2.96 % ID/g. Besides, in data set [2] (1 h p.i.), the “Biodistribution Muscle” value is given as 0.13 ± 0.04 % ID/g, the “Biodistribution Pancreas” value is reported as 0.25 ± 0.06 % ID/g, the “Biodistribution Parotid gland” value came to 0.62 ± 0.20 % ID/g and the “Biodistribution Spleen” value was 2.51 ± 0.95 % ID/g. Besides, in data set [2] (1 h p.i.), the “Biodistribution Stomach” value amounted to 0.30 ± 0.09 % ID/g, the “Biodistribution Submandibular gland” value is reported as 0.37 ± 0.08 % ID/g, the “Biodistribution Tumor” value is 5.31±0.94 % ID/g and the “Ratio Tumor-to-blood” value is reported as 5.57 ± 1.18. Besides, in data set [2] (1 h p.i.), the “Ratio Tumor-to-kidney” value is listed as 0.09 ± 0.03, the “Ratio Tumor-to-liver” value worked out at 6.61 ± 2.19, the “Ratio Tumor-to-muscle” value amounted to 44.1 ± 9.0 and the “Ratio Tumor-to-parotid gland” value was 9.09 ± 3.13. The “Ratio Tumor-to-submandibular gland” value in data set [2] (1 h p.i.) came to 14.7 ± 3.5. In data set [2] (1 h p.i. vs 24 h p.i.), the “tumor-to-submandibularis and -parotidea ratios at 1 h p.i. compared to respective values at 24 h p.i.” value is “two-fold lower”. Moreover, in data set [2] (24 h p.i.), the “Biodistribution Adrenals” value is given as 0.04 ± 0.01 % ID/g, the “Biodistribution Blood” value is 0.00 ± 0.00 % ID/g, the “Biodistribution Bone” value worked out at 0.02 ± 0.01 % ID/g and the “Biodistribution Heart” value is recorded as 0.02 ± 0.01 % ID/g. In data set [2] (24 h p.i.), the “Biodistribution Intestine” value was 0.12 ± 0.06 % ID/g, the “Biodistribution Kidneys” value was 0.31 ± 0.05 % ID/g, the “Biodistribution Liver” value amounted to 0.13 ± 0.05 % ID/g and the “Biodistribution Lung” value is given as 0.03 ± 0.01 % ID/g. Further, in data set [2] (24 h p.i.), the “Biodistribution Muscle” value was 0.01 ± 0.01 % ID/g, the “Biodistribution Pancreas” value stood at 0.02 ± 0.01 % ID/g, the “Biodistribution Parotid gland” value was 0.04 ± 0.02 % ID/g and the “Biodistribution Spleen” value turned out to be 0.09 ± 0.01 % ID/g. In data set [2] (24 h p.i.), the “Biodistribution Stomach” value amounted to 0.06 ± 0.04 % ID/g, the “Biodistribution Submandibular gland” value was 0.03 ± 0.01 % ID/g, the “Biodistribution Tumor” value is reported as 1.20 ± 0.55 % ID/g and the “Ratio Tumor-to-blood” value came out at 947 ± 652. Besides, in data set [2] (24 h p.i.), the “Ratio Tumor-to-kidney” value was found to be 3.80 ± 1.36, the “Ratio Tumor-to-liver” value is recorded as 8.94 ± 2.94, the “Ratio Tumor-to-muscle” value is listed as 127 ± 92 and the “Ratio Tumor-to-parotid gland” value was determined as 31.8 ± 9.3. Further, in data set [2] (24 h p.i.), the “Ratio Tumor-to-submandibular gland” value stood at 34.5 ± 9.2. The log distribution coefficient (log D) in data set [1] is on record as −3.40±0.45.

Consider `CSCC[C@H](NC(=O)CC[C@H](NC(=O)N[C@@H](CCC(=O)N[C@H](CCCNC(=O)CCC(=O)NCCCC[C@@H](NC(=O)[C@@H](CNC(=O)c1ccc([Si](F)(C(C)(C)C)C(C)(C)C)cc1)NC(=O)CN1CCN(CC(=O)[O-])CCN(CC(=O)[O-])CCN(CC(=O)[O-])CC1)C(=O)O)C(=O)O)C(=O)O)C(=O)O)C(=O)O.[177Lu+3]` [[^177Lu]Lu-5, [^177Lu]Lu-Proinhibitor I], for which, in data set [2] (24 h p.i.), the “Biodistribution Adrenals” value is given as 0.00 ± 0.00 % ID/g, the “Biodistribution Blood” value turned out to be 0.00 ± 0.00 % ID/g, the “Biodistribution Bone” value is reported as 0.00 ± 0.00 % ID/g and the “Biodistribution Heart” value is given as 0.01 ± 0.00 % ID/g. In data set [2] (24 h p.i.), the “Biodistribution Intestine” value is on record as 0.55 ± 0.04 % ID/g, the “Biodistribution Kidneys” value is 0.48 ± 0.02 % ID/g, the “Biodistribution Liver” value turned out to be 0.05 ± 0.00 % ID/g and the “Biodistribution Lung” value is 0.33 ± 0.30 % ID/g. Further, in data set [2] (24 h p.i.), the “Biodistribution Muscle” value came out at 0.00 ± 0.00 % ID/g, the “Biodistribution Pancreas” value is 0.01 ± 0.00 % ID/g, the “Biodistribution Parotid gland” value is reported as 0.02 ± 0.00 % ID/g and the “Biodistribution Spleen” value is recorded as 0.05 ± 0.01 % ID/g. Moreover, in data set [2] (24 h p.i.), the “Biodistribution Stomach” value amounted to 0.14 ± 0.07 % ID/g, the “Biodistribution Submandibular gland” value is reported as 0.02 ± 0.01 % ID/g and the “Biodistribution Tumor” value is reported as 0.09±0.02 % ID/g.

Consider `CCCCCC[C@H](NC(=O)CC[C@H](NC(=O)N[C@@H](CCC(=O)N[C@H](CCCNC(=O)CCC(=O)NCCCC[C@@H](NC(=O)[C@@H](CNC(=O)c1ccc([Si](F)(C(C)(C)C)C(C)(C)C)cc1)NC(=O)CN1CCN(CC(=O)[O-])CCN(CC(=O)[O-])CCN(CC(=O)[O-])CC1)C(=O)O)C(=O)O)C(=O)O)C(=O)O)C(=O)O.[177Lu+3]` [[^177Lu]Lu-6, [^177Lu]Lu-Proinhibitor II], for which, in data set [2] (24 h p.i.), the “Biodistribution Adrenals” value is recorded as 0.04 ± 0.00 % ID/g, the “Biodistribution Blood” value turned out to be 0.00 ± 0.00 % ID/g, the “Biodistribution Bone” value stood at 0.02 ± 0.01 % ID/g and the “Biodistribution Heart” value is reported as 0.03 ± 0.01 % ID/g. Also, in data set [2] (24 h p.i.), the “Biodistribution Intestine” value was determined as 0.18 ± 0.06 % ID/g, the “Biodistribution Kidneys” value is 2.36 ± 0.39 % ID/g, the “Biodistribution Liver” value came out at 0.14 ± 0.02 % ID/g and the “Biodistribution Lung” value is given as 0.10 ± 0.08 % ID/g. Further, in data set [2] (24 h p.i.), the “Biodistribution Muscle” value amounted to 0.02 ± 0.00 % ID/g, the “Biodistribution Pancreas” value was found to be 0.03 ± 0.01 % ID/g, the “Biodistribution Parotid gland” value amounted to 0.09 ± 0.03 % ID/g and the “Biodistribution Spleen” value is reported as 0.11 ± 0.03 % ID/g. In data set [2] (24 h p.i.), the “Biodistribution Stomach” value worked out at 0.05 ± 0.01 % ID/g, the “Biodistribution Submandibular gland” value stood at 0.07 ± 0.01 % ID/g and the “Biodistribution Tumor” value is 0.33±0.11 % ID/g.

Turning to `CCCCCC[C@H](NC(=O)[C@H](CCC(=O)O)NC(=O)N[C@@H](CCC(=O)N[C@H](CCCNC(=O)CCC(=O)NCCCC[C@@H](NC(=O)[C@@H](CNC(=O)c1ccc([Si](F)(C(C)(C)C)C(C)(C)C)cc1)NC(=O)CN1CCN(CC(=O)[O-])CCN(CC(=O)[O-])CCN(CC(=O)[O-])CC1)C(=O)O)C(=O)O)C(=O)O)C(=O)O.[177Lu+3]` [[^177Lu]Lu-7, [^177Lu]Lu-Proinhibitor III], in data set [2] (24 h p.i.), the “Biodistribution Adrenals” value is reported as 0.03 ± 0.01 % ID/g, the “Biodistribution Blood” value stood at 0.01 ± 0.00 % ID/g, the “Biodistribution Bone” value stood at 0.04 ± 0.01 % ID/g and the “Biodistribution Heart” value came to 0.03 ± 0.01 % ID/g. In data set [2] (24 h p.i.), the “Biodistribution Intestine” value is reported as 0.10 ± 0.05 % ID/g, the “Biodistribution Kidneys” value came out at 2.04 ± 0.75 % ID/g, the “Biodistribution Liver” value turned out to be 0.17 ± 0.05 % ID/g and the “Biodistribution Lung” value was 0.04 ± 0.01 % ID/g. For the same molecule, in data set [2] (24 h p.i.), the “Biodistribution Muscle” value was determined as 0.01 ± 0.00 % ID/g, the “Biodistribution Pancreas” value turned out to be 0.02 ± 0.00 % ID/g, the “Biodistribution Parotid gland” value is recorded as 0.06 ± 0.01 % ID/g and the “Biodistribution Spleen” value turned out to be 0.08 ± 0.02 % ID/g. Further, in data set [2] (24 h p.i.), the “Biodistribution Stomach” value amounted to 0.04 ± 0.01 % ID/g, the “Biodistribution Submandibular gland” value turned out to be 0.05 ± 0.02 % ID/g and the “Biodistribution Tumor” value is 0.14 ± 0.05 % ID/g.

On to `CC(C)(C)[Si](F)(c1ccc(C(=O)NCC(NC(=O)CN2CCN(CC(=O)[O-])CCN(CC(=O)[O-])CCN(CC(=O)[O-])CC2)C(=O)NC(CCCCNC(=O)CCC(=O)NCCCC(NC(=O)CCC(NC(=O)NC(CCC(=O)O)C(=O)O)C(=O)O)C(=O)O)C(=O)O)cc1)C(C)(C)C.[Lu+3]` (centres unmarked) [^natLu-1, ^natLu-PSMA-10, reference compound], for which the concentration for half-maximal inhibition (IC50) at PSMA stood at 7.2 ± 3.7 nM.

On PSMA, `CCCCC[C@H](NC(=O)N[C@@H](CCC(=O)N[C@H](CCCNC(=O)CCC(=O)NCCCC[C@@H](NC(=O)[C@@H](CNC(=O)c1ccc([Si](F)(C(C)(C)C)C(C)(C)C)cc1)NC(=O)CN1CCN(CC(=O)[O-])CCN(CC(=O)[O-])CCN(CC(=O)[O-])CC1)C(=O)O)C(=O)O)C(=O)O)C(=O)O.[Lu+3]` [^natLu-8, ^natLu-2-Aminoheptanoic Acid Derivative 8] had an IC50 of more than 2000 nM.

`CC(C)(C)[Si](F)(c1ccc(C(=O)NCC(NC(=O)CN2CCN(CC(=O)[O-])CCN(CC(=O)[O-])CCN(CC(=O)[O-])CC2)C(=O)NC(CCCCNC(=O)CCC(=O)NCCCC(NC(=O)CCC(NC(=O)NC(Cc2ccco2)C(=O)O)C(=O)O)C(=O)O)C(=O)O)cc1)C(C)(C)C.[Lu+3]` (centres unmarked) [^natLu-9, ^natLu-Furyl Derivative 9] returned a concentration for half-maximal inhibition (IC50) on PSMA of more than 440 nM.

In turn, `CC(C)(C)[Si](F)(c1ccc(C(=O)NCC(NC(=O)CN2CCN(CC(=O)[O-])CCN(CC(=O)[O-])CCN(CC(=O)[O-])CC2)C(=O)NC(CCCCNC(=O)CCC(=O)NCCCC(NC(=O)CCC(NC(=O)NC(CCc2nnn[nH]2)C(=O)O)C(=O)O)C(=O)O)C(=O)O)cc1)C(C)(C)C.[Lu+3]` (centres unmarked) [^natLu-11, ^natLu-Tetrazole Derivative 11] returned a concentration for half-maximal inhibition (IC50) at PSMA of 16.4 ± 3.8 nM.

Take “SIFA-Asn(AcNH-p-Glc)-PEG-Tyr^3-octreotate”: the “log P(ow)” value in data set [3] is on record as 0.96.
